Test results reported in US11883423B2, “Nucleobase analogue derivatives and their applications” (BOARD OF REGENTS, THE UNIVERSITY OF TEXAS SYSTEM, priority 2014, dated 2024).

Legend:
Panc-02 tumor cells = experiment: Cytotoxicity after 4 h co-incubation, MTT test; type: cell-based, mouse; settings: Panc-02 cells, at 60 μM
Description: The mechanisms underlying the cytotoxicity of the Gem-DHA may be different from that of gemcitabine. For example, in cell culture studies, Panc-02 cells were seeded into 96-well plates (1,500 cells per well) and incubated at 37° C., 5% CO2 for 24 h. They were then co-incubated with various concentrations of Gem-DHA, gemcitabine HCl alone, or DHA alone for 4 h, and cell viability was determined using an MTT test.

TC-1 tumors = experiment: Antitumor activity against s.c. TC-1 tumors in C57BL/6 mice; type: in vivo; settings: i.p., 50 mg/kg, every 3-4 days, 4 times
Description: Therefore, the in vivo antitumor activity of Gem-DHA against TC-1 tumor cells was also evaluated. In the mouse model with TC-1 tumors, 5×10^5 cells were s.c. injected in the right flank of female C57BL/6 mice (Charles River, 6-8 weeks). Eight days later, mice were randomized into 3 groups (n=5-6) and i.p. injected with Gem-DHA (50 mg/kg, −0.087 mmole/kg), gemcitabine HCl (26.1 mg/kg, ˜0.087 mmole/kg), or left untreated as a control. Treatments were repeated every 3-4 days for a total of 4 times. Tumor growth was monitored and tumor volume was calculated as mentioned above. […] Shown in FIG. 14B are the body weights of TC-1 tumor-bearing mice after they were treated with multiple doses of Gem-DHA.

[1] = test system: Panc-1-Luc human pancreatic cells; experiment: Anti-proliferative activity, MTT assay, Panc-1-Luc cells; type: cell-based; settings: 72 h
Description: (§1) The anti-proliferative activity of Gem-DHA was evaluated in Panc-02, TC-1, Panc-1-Luc, and BxPC-3 cell lines. For Panc-02 and TC-1 cells, cells (1,500/well for Panc-02 and 3,000/well for TC-1) were seeded in 96-well plates and incubated at 37° C. and 5% CO2 overnight. The cells were then treated with various concentrations of Gem-DHA or other compounds for 24 h. For BxPC-3 and Panc-1-Luc cells, 3,000 and 1,000 cells/well were used, respectively, and cells were co-incubated with the Gem-DHA for 72 h. Cell viability was determined using an MTT assay as previously described (Naguib YW et al. Mol Pharm. 2014, 11(4), 1239-1249). Gemcitabine HCl was dissolved in cell culture medium, whereas Gem-DHA and DHA were dissolved in dimethylsulfoxide (DMSO). The values of IC50 were calculated using GraphPad Prism (GraphPad software, Inc., La Jolla, CA).

[2] = test system: Kras-Ink4a mice that spontaneously develop pancreatic tumors; experiment: Survival of Kras-Ink4a mice, genetically modified model of pancreatic cancer; type: in vivo, mouse; settings: i.p., 50 mg/kg
Description: Finally, the antitumor activity of Gem-DHA was also evaluated in a genetically modified mouse model of pancreatic cancer. Female Kras-Ink4a mice that spontaneously develop pancreatic tumors were obtained from Dr. Stephen Hursting's lab at the University of Texas at Austin (Lashinger L et al. Cancer Prevention Research. 2013, 6(10), 1046-1055). […] On the 20th week, one group of mice (n=5) started to receive Gem-DHA (50 mg/kg, in Tween 80/ethanol/water solution with 5% (w/v) of mannitol) by i.p. injection. The injection was repeated twice a week, once a week for the last 5 doses, for a total of 29 times. As a control, another group of mice (n=6) were left untreated. […] Shown in FIG. 15 are the survival curves of mice treated with Gem-DHA or left untreated. […] The median survival time of mice that were treated with Gem-DHA was 280 days, in comparison to 172 days for mice that were left untreated (p=0.01, Log-rank (Mantel-Cox) test).

BxPC-3 cells = experiment: Anti-proliferative activity, MTT assay, BxPC-3 cells; type: cell-based, human; settings: Bx-PC3 cells
Description: as §1

Panc-02 cells = experiment: Anti-proliferative activity, MTT assay, Panc-02 cells; type: cell-based; settings: Mus musculus, Panc02, 24 h
Description: as §1

[3] = Aqueous solubility by the indirect method (IPM/water partitioning, Beall et al.); type: physicochemical
Description: The aqueous solubility of Gem-DHA was determined following an indirect method according to Beall et al. with minimal modifications (Beall HD et al. International Journal of Pharmaceutics. 1993, 93, 37-47). Briefly, an excess amount of Gem-DHA was added to 100 μl of IPM in a crimp-sealed amber glass vials under nitrogen and was stirred vigorously at room temperature for 24 h, protected from light. After the stirring was stopped, the mixture was left to stand for an additional 24 h for equilibration. The content of the vial was centrifuged (14,000 rpm, 10 min) and the supernatant was transferred into a different tube. Aliquots of the saturated IPM solution were used to measure the Gem-DHA concentration before partitioning (A1) using HPLC (after proper dilution with methanol). Then, water was added to the IPM saturated solution in a volume ratio of 10:1. The two phases were mixed by vortexing for 5 min, left to stand for 15 min, then centrifuged (14,000 rpm, 15 min) to collect the IPM layer. Gem-DHA concentration in the IPM layer (A2) was again measured using HPLC after partitioning. The following equation was used to calculate the partition coefficient (KIPM/water) (Beall HD et al. International Journal of Pharmaceutics. 1993, 93, 37-47):
[formula] where Vwater is the volume of the water phase and VIPM is the volume of IPM. The value of (Vwater/VIPM) was 10.
The aqueous solubility (Sw) of Gem-DHA was determined using the following equation (Id.):
[formula] where SIPM is the solubility of Gem-DHA in IPM.
In order to validate the method of Beall et al. (Id.), the aqueous solubility of 4-(N)-stearoyl gemcitabine, another lipophilic gemcitabine conjugate (Sloat BR et al. Int J Pharm. 2011, 409(1-2), 278-288), which is stable in water, was measured directly (i.e., direct method) or using the indirect method reported by Beall et al. (Beall HD et al. International Journal of Pharmaceutics. 1993, 93, 37-47).

CC/C=C\C/C=C\C/C=C\C/C=C\C/C=C\C/C=C\CCC(=O)Nc1ccn(C2OC(CO)C(O)C2(F)F)c(=O)n1 (stereo not drawn) [Gem-DHA, 4-(N)-Docosahexaenoyl Difluorodeoxycytidine]
Cytotoxicity after 4 h of co-incubation (Panc-02 tumor cells): significant cytotoxicity
Control of growth of s.c. TC-1 tumors (TC-1 tumors): more effective than a molar equivalent dose of gemcitabine HCl
Inhibition of tumor cell growth (comparison) [1]: more effective than gemcitabine alone or the physical mixture of gemcitabine and DHA
Median survival time ([2]; 29 injections from week 20, untreated 172 days, p=0.01): 280 days
Survival of the mice ([2]; versus untreated): significantly prolonged the survival
Fold by which IC50 is smaller than that of gemcitabine HCl (BxPC-3 cells): 1.8×10^5 fold
IC50 (Panc-02 cells): 34 pM
KIPM/water (partition coefficient) [3]: 194.72 ± 111.3
Stability in IPM, remaining ([3]; buffer, 48 h): > 92%
